Data published in EP4635500A1, “THERAPEUTIC AGENT FOR BACTERIAL INFECTION” (Sumitomo Pharma Co., Ltd., priority 2022, dated 2024).
≈ marks a conversion by molar mass, not a printed value. Where two headings read alike, the source gives them in different places.

Tested on: Enterobacterales
Assay: MIC, broth microdilution, CDC/FDA Antibiotic Resistance Isolate Bank (Example 7, Tables 8, 11, 12)
Type: cell-based

CN(C)c1cc(NC(=O)CNC(C)(C)C)c(O)c2c1C[C@H]1C[C@H]3[C@H](N(C)C)C(=O)C(C(N)=O)=C(O)[C@@]3(O)C(=O)C1=C2O [Tigecyeline]
MIC (Klebsiella pneumoniae, KUB No. 5576, AR Bank # 79): 0.5 mg/L (≈ 0.854 µM)
MIC (Klebsiella pneumoniae, KUB No. 5577, AR Bank # 80): 0.25 mg/L (≈ 0.427 µM)
MIC (Klebsiella pneumoniae, KUB No. 5584, AR Bank # 87): 2 mg/L (≈ 3.41 µM)
MIC (Klebsiella pneumoniae, KUB No. 5594, AR Bank # 97): 1 mg/L (≈ 1.71 µM)
MIC (Klebsiella pneumoniae, KUB No. 5595, AR Bank # 98): 0.5 mg/L (≈ 0.854 µM)
MIC (Klebsiella pneumoniae, KUB No. 5603, AR Bank # 106): 2 mg/L (≈ 3.41 µM)
MIC (Klebsiella pneumoniae, KUB No. 5604, AR Bank # 107): 0.25 mg/L (≈ 0.427 µM)
MIC (Klebsiella pneumoniae, KUB No. 5606, AR Bank # 109): 1 mg/L (≈ 1.71 µM)
MIC (Klebsiella pneumoniae, KUB No. 5609, AR Bank # 112): 0.5 mg/L (≈ 0.854 µM)
MIC (Klebsiella pneumoniae, KUB No. 5610, AR Bank # 113): 0.5 mg/L (≈ 0.854 µM)
MIC (Klebsiella pneumoniae, KUB No. 5612, AR Bank # 115): 2 mg/L (≈ 3.41 µM)
MIC (Klebsiella pneumoniae, KUB No. 5614, AR Bank # 117): 0.5 mg/L (≈ 0.854 µM)
MIC (Klebsiella pneumoniae, KUB No. 5617, AR Bank # 120): 0.5 mg/L (≈ 0.854 µM)
MIC (Klebsiella pneumoniae, KUB No. 5622, AR Bank # 125): 1 mg/L (≈ 1.71 µM)
MIC (Klebsiella pneumoniae, KUB No. 5623, AR Bank # 126): 0.5 mg/L (≈ 0.854 µM)
MIC (Klebsiella pneumoniae, KUB No. 5626, AR Bank # 129): 1 mg/L (≈ 1.71 µM)
MIC (Klebsiella pneumoniae, KUB No. 5632, AR Bank # 135): 1 mg/L (≈ 1.71 µM)
MIC (Klebsiella pneumoniae, KUB No. 5635, AR Bank # 138): 2 mg/L (≈ 3.41 µM)
MIC (Klebsiella pneumoniae, KUB No. 5636, AR Bank # 139): 0.5 mg/L (≈ 0.854 µM)
MIC (Klebsiella pneumoniae, KUB No. 5637, AR Bank # 140): 1 mg/L (≈ 1.71 µM)
MIC (Klebsiella pneumoniae, KUB No. 5638, AR Bank # 141): 1 mg/L (≈ 1.71 µM)
MIC (Klebsiella pneumoniae, KUB No. 5639, AR Bank # 142): 1 mg/L (≈ 1.71 µM)
MIC (Klebsiella pneumoniae, KUB No. 5640, AR Bank # 143): 2 mg/L (≈ 3.41 µM)
MIC (Klebsiella pneumoniae, KUB No. 5642, AR Bank # 145): 0.5 mg/L (≈ 0.854 µM)
MIC (Klebsiella pneumoniae, KUB No. 5643, AR Bank # 146): 1 mg/L (≈ 1.71 µM)
MIC (Klebsiella pneumoniae, KUB No. 5645, AR Bank # 148): 1 mg/L (≈ 1.71 µM)
MIC (Klebsiella pneumoniae, KUB No. 5649, AR Bank # 152): 2 mg/L (≈ 3.41 µM)
MIC (Klebsiella pneumoniae, KUB No. 5650, AR Bank # 153): 1 mg/L (≈ 1.71 µM)
MIC (Klebsiella pneumoniae, KUB No. 5655, AR Bank # 158): 1 mg/L (≈ 1.71 µM)
MIC (Klebsiella pneumoniae, KUB No. 5657, AR Bank # 160): 0.5 mg/L (≈ 0.854 µM)
MIC (Klebsiella pneumoniae, Klebsiella pneumoniae KUB No. 5784, AR Bank #438): 1 mg/L (≈ 1.71 µM)
MIC (Klebsiella pneumoniae, Klebsiella pneumoniae KUB No. 5797, AR Bank #453): 1 mg/L (≈ 1.71 µM)
MIC (Klebsiella pneumoniae, Klebsiella pneumoniae KUB No. 5809, AR Bank #504): 1 mg/L (≈ 1.71 µM)
MIC (Klebsiella pneumoniae, Klebsiella pneumoniae KUB No. 5810, AR Bank #505): 0.5 mg/L (≈ 0.854 µM)
MIC (Klebsiella pneumoniae, Klebsiella pneumoniae KUB No. 5811, AR Bank #506): 2 mg/L (≈ 3.41 µM)
MIC (Klebsiella pneumoniae, Klebsiella pneumoniae KUB No. 5812, AR Bank #507): 2 mg/L (≈ 3.41 µM)
MIC (Klebsiella pneumoniae, Klebsiella pneumoniae KUB No. 5827, AR Bank #522): 1 mg/L (≈ 1.71 µM)
MIC (Klebsiella pneumoniae, Klebsiella pneumoniae KUB No. 5828, AR Bank #523): 1 mg/L (≈ 1.71 µM)
MIC (Klebsiella pneumoniae, Klebsiella pneumoniae KUB No. 5829, AR Bank #524): 1 mg/L (≈ 1.71 µM)
MIC (Klebsiella pneumoniae, Klebsiella pneumoniae KUB No. 5830, AR Bank #525): 1 mg/L (≈ 1.71 µM)
MIC (Kluyvera ascorbata, KUB No. 5641, AR Bank # 144, read-out: MIC): 2 mg/L (≈ 3.41 µM)
MIC (Morganella morganii, KUB No. 5554, AR Bank# 57): 0.5 mg/L (≈ 0.854 µM)
MIC (Morganella morganii, KUB No. 5630, AR Bank # 133, read-out: MIC): 4 mg/L (≈ 6.83 µM)
MIC (Proteus mirabilis, KUB No. 5556, AR Bank# 59): 1 mg/L (≈ 1.71 µM)
MIC (Proteus mirabilis, KUB No. 5652, AR Bank # 155): 2 mg/L (≈ 3.41 µM)
MIC (Proteus mirabilis, KUB No. 5653, AR Bank # 156): 1 mg/L (≈ 1.71 µM)
MIC (Proteus mirabilis, KUB No. 5656, AR Bank # 159): 2 mg/L (≈ 3.41 µM)
MIC (Providencia rettgeri, KUB No. 5579, AR Bank # 82): 2 mg/L (≈ 3.41 µM)
MIC (Raoultella ornithinolvtica, KUB No. 5631, AR Bank # 134, read-out: MIC): 0.25 mg/L (≈ 0.427 µM)
MIC (Salmonella enterica, Salmonella Senftenberg, KUB No. 5624, AR Bank # 127, read-out: MIC): 0.5 mg/L (≈ 0.854 µM)
MIC (Serratia marcescens, KUB No. 5588, AR Bank # 91): 0.5 mg/L (≈ 0.854 µM)
MIC (Serratia marcescens, KUB No. 5596, AR Bank # 99): 1 mg/L (≈ 1.71 µM)
MIC (Serratia marcescens, KUB No. 5618, AR Bank # 121): 1 mg/L (≈ 1.71 µM)
MIC (Serratia marcescens, KUB No. 5619, AR Bank # 122): 1 mg/L (≈ 1.71 µM)
MIC (Serratia marcescens, KUB No. 5620, AR Bank # 123): 1 mg/L (≈ 1.71 µM)
MIC (Serratia marcescens, KUB No. 5621, AR Bank # 124): 1 mg/L (≈ 1.71 µM)
MIC (Serratia marcescens, KUB No. 5627, AR Bank # 130): 1 mg/L (≈ 1.71 µM)
MIC (Serratia marcescens, KUB No. 5628, AR Bank # 131): 1 mg/L (≈ 1.71 µM)
MIC (Serratia marcescens, Serratia marcescens KUB No. 5825, AR Bank #520): 1 mg/L (≈ 1.71 µM)
MIC (Serratia marcescens, Serratia marcescens KUB No. 5826, AR Bank #521): 2 mg/L (≈ 3.41 µM)
